From patent publication US6136784A, “Amylin agonist pharmaceutical compositions containing insulin” (Amylin Pharmaceuticals, Inc., priority 1998, dated 2000)
Read-outs that look alike come from different tables or passages of the source. Positions of bridges follow the written chain, without caps; N, C: chain ends. No end group written: not given here.

Experiments:
[1] = 28 days, cited from earlier work
[2] = 30-microgram doses four times per day, 14 days; p=0.003; cited from earlier work
[3] = intravenous infusion; cited from earlier work
[4] = cited from earlier work
[5] = self injected three times per day, 14 days, plus usual insulin; cited from earlier work
[6] = in vivo, sc; cited from earlier work
[7] = test system: Harlan Sprague Dawley (non-diabetic) rats; experiment: Phenol red gastric emptying assay, normal rats; assay type: in vivo, rat; conditions: sc bolus 5 minutes before gavage, ±0.19 log units
Description: (§1) Methods of measuring the rate of gastric emptying are disclosed in, for example, Young et al., Diabetolocia, 38(6):642-648 (1995). In a phenol red method, which is described below, conscious rats receive by gavage an acoloric gel containing methyl cellulose and a phenol red indicator. Twenty minutes after gavage, animals are anesthetized using halothane, the stomach exposed and clamped at the pyloric and lower esophageal sphincters, removed and opened into an alkaline solution. Stomach content may be derived from the intensity of the phenol red in the alkaline solution, measured by absorbance at a wavelength of 560 nm. […] Tritium in the plasma separated from tail blood is collected at various timepoints and detected in a beta counter. […]
(§2) Gastric emptying was measured using a modification (Plourde et al., Life Sci. 53:857-862 (1993)) of the original method of Scarpignato et al. (Arch. Int. Pharmacodyn. Ther. 246:286-295 (1980)). […] Stomach content was derived from the intensity of the phenol red in the alkaline solution, measured by absorbance at a wavelength of 560 nm. […] In other experiments, particulate gastric contents were centrifuged to clear the solution for absorbance measurements. Where the diluted gastric contents remained turbid, the spectroscopic absorbance due to phenol red was derived as the difference between that present in alkaline vs acetified diluent. […]

diabetic BB rats = experiment: Phenol red gastric emptying assay, diabetic rats; assay type: in vivo, rat; conditions: sc bolus 5 minutes before gavage, ±0.18 log units
Description: as §1, §2

[8] = test system: Harlan Sprague Dawley rats; experiment: Tritiated glucose gastric emptying assay; assay type: in vivo, rat; conditions: sc 1 minute before gavage of tritiated glucose
Description: Methods of measuring the rate of gastric emptying are disclosed in, for example, Young et al., Diabetolocia, 38(6):642-648 (1995). In a phenol red method, which is described below, conscious rats receive by gavage an acoloric gel containing methyl cellulose and a phenol red indicator. Twenty minutes after gavage, animals are anesthetized using halothane, the stomach exposed and clamped at the pyloric and lower esophageal sphincters, removed and opened into an alkaline solution. Stomach content may be derived from the intensity of the phenol red in the alkaline solution, measured by absorbance at a wavelength of 560 nm. In a tritiated glucose method, which is described in Example 9 below, conscious rats are gavaged with tritiated glucose in water. The rats are gently restrained by the tail, the tip of which is anesthetized using lidocaine. Tritium in the plasma separated from tail blood is collected at various timepoints and detected in a beta counter. Test compounds are normally administered about one minute before gavage.
Conscious, non-fasted, Harlan Sprague Dawley rats were restrained by the tail, the tip of which was anesthetized using 2% lidocaine. Tritium in plasma separated from tail blood collected 0, 15, 30, 60, 90 and 120 minutes after gavage was detected in a beta counter. […]

[9] = test system: insulin-stimulated glycogen synthesis in soleus muscle; experiment: Soleus muscle assay (inhibition of insulin-stimulated glycogen synthesis); assay type: cell-based, rat; conditions: 7.1 nM insulin
Protocol: Assays of biological activity of amylin agonists in the soleus muscle may be performed using previously described methods (Leighton, B. and Cooper, Nature, 335:632-635 (1988); Cooper, et al., Proc. Natl. Acad. Sci. USA 85:7763-7766 (1988)), in which amylin agonist activity may be assessed by measuring the inhibition of insulin-stimulated glycogen synthesis. The soleus muscle assay is also described below.
Determination of amylin agonist activity of compounds was carried out using the soleus muscle assay as follows. Male Harlan Sprague-Dawley rats of approximately 200 g mass were used in order to maintain mass of the split soleus muscle less than 40 mg. The animals were fasted for 4 hours prior to sacrifice by decapitation. The skin was stripped from the lower limb which was then pinned out on corkboard. The tendo achilles was cut just above os calcis and m. gastrocnemius reflected out from the posterior aspect of the tibia. M. soleus, a small 15-20 mm long, 0.5 mm thick flat muscle on the bone surface of m. gastrocnemius was then stripped clear and the perimysium cleaned off using fine scissors and forceps. […]
^14 C-glycogen determination was performed in a 7 mL scintillation vial. […] The remaining glycogen was redissolved in 1 mL water and 4 mL scintillation fluid and counted for ^14 C. […]

Q: Which results are given for ^25,28,29 Pro-h-Amylin [compound 12]?
A: Lowering of fructosamine ([1]; 30 micrograms four times a day, p=0.029): 17.5 µmol/L; Lowering of fructosamine ([1]; 60 micrograms four times a day, p=0.001): 22.6 µmol/L; Lowering of fructosamine ([1]; 60 micrograms three times a day, p=0.003): 24.1 µmol/L; Reduction of average blood-glucose concentrations over a 24-hour observation period compared to placebo [2]: 35 mg/dL; Post-meal blood-glucose concentrations [3]: significantly reduced; Tolerability ([4]; 30-microgram dose): well tolerated; Lowering of fructosamine compared to placebo ([4]; 30-microgram doses four times per day, 28 days, p=0.003): 33 µmol/L; Lowering of 24-hour average blood-glucose concentrations compared to placebo ([4]; 30-microgram doses four times per day, 28 days, p=0.009): 31 mg/dL; Blood-glucose concentrations after a test meal compared to placebo [5]: statistically significant reduction

Q: Which results are given for “soluble insulin: soluble insulin given by subcutaneous injection”?
A: Duration of action (lasts for) [6]: 4 to 6 h; Time to absorption following subcutaneous injection [6]: 30 min

Q: Which ED50 for inhibition of gastric emptying [7] does the source give for rat amylin here?
A: Its ED50 for inhibition of gastric emptying is 0.43 µg.

Q: What about the ED50 for inhibition of gastric emptying (diabetic BB rats) of the same substance?
A: Its ED50 for inhibition of gastric emptying is 2.2 µg.

Q: What about the ED50 derived from the logistic fit (plasma tritium AUC over 30 minutes) [8] of the same substance?
A: The ED50 derived from the logistic fit (plasma tritium AUC over 30 minutes) was 0.35 µg.

Q: With “^2,7 Cyclo-[^2 Asp,^7 Lys]-h-Amylin (KDNTATKATQRLANFLVHSSNNFGAILSSTNVGSNTY; lactam 2-7; ends not checked; UniProt P10997 34-70, looked up, variant C2D C7K) [compound 2]” as the substance, how does the EC50 [9] read?
A: The EC50 was 6.62 nM.

Q: With ^25,28 Pro-h-Amylin [compound 6] as the substance, how does the EC50 [9] read?
A: The EC50 was 13.2 nM.
